Measured values taken from US20040223963A1, “Method for treating ischemic stroke with melatonin” (priority 2003, published 2004).
“Also recorded” adds a separate entry of the source. Read-outs that look alike come from different tables or passages of the source.

What was measured:
[1] = system: ischemic stroke; settings: cited from earlier work
[2] = system: adult Sprague-Dawley rats; experiment: endovascular middle cerebral artery occlusion (MCAO) stroke models, permanent and 3-hour; assay type: in vivo, rat
Text: The laboratory observations in support of the disclosed invention include experiments with rats. In experimental studies, the control groups of animal received identical handling plus an intraperitoneal injection of the vehicle alone (i.e. without melatonin).

[3] = system: women; settings: oral, about 300 mg daily for about 4 months; cited from earlier work
[4] = clinical trials on neuroprotection against ischemic stroke
[5] = second and third doses added at 24 and 48 hours of ischemia

## O=C(O)[C@@H]1C[C@H](CP(=O)(O)O)CCN1 (racemic) [Selfotel]
[1]; [4]
  Results (adverse effects): Trial stopped, adverse effects

## CCc1cccc(N(C)C(N)=Nc2cccc3ccccc23)c1 [Aptiganel]
[1]; [4]
  Results (adverse effects): Trial stopped, adverse effects

## COc1ccc(Cl)cc1[C@]1(F)C(=O)Nc2cc(C(F)(F)F)ccc21 [BMS-204352]
[1]; [4]
  Results (efficacy): No efficacy

## CN1CC[C@@]23CCCC[C@@H]2[C@@H]1Cc1ccc(O)cc13 [Dextrorfan]
[1]; [4]
  Results (adverse effects): Trial stopped, adverse effects

## C[C@]12N[C@H](Cc3ccccc31)c1ccccc12 [Dizolcipine]
[1]; [4]
  Results (adverse effects): Trial stopped, adverse effects

## OC(CN1CCC(Cc2ccc(F)cc2)CC1)c1ccc(Cl)cc1 (centres unmarked) [Eliprodil]
[1]; [4]
  Results (efficacy): No efficacy

## Fc1ccc(C(c2ccc(F)cc2)N2CCN(C/C=C/c3ccccc3)CC2)cc1 [Flunarizine]
[1]; [4]
  Results (efficacy): No efficacy

## O=C1NC(c2ccccc2)(c2ccccc2)C(=O)N1COP(=O)(O)O [Fosphenytoin]
[1]; [4]
  Results (efficacy): No efficacy

## O=C(/C=C/c1c(C(=O)O)[nH]c2cc(Cl)cc(Cl)c12)Nc1ccccc1 [GV150526]
[1]; [4]
  Results (efficacy): No efficacy

## COC(=O)C1=C(C)NC(C)=C(C(=O)OC(C)C)C1c1cccc2nonc12 (centres unmarked) [Isradipine]
[1]; [4]
  Results (efficacy): No efficacy

## CN(c1nc2ccccc2s1)C1CCN(C[C@H](O)COc2ccc(F)c(F)c2)CC1 [Lubeluzole]
[1]; [4]
  Results (efficacy): No efficacy

## NS(=O)(=O)c1cccc2c1c([N+](=O)[O-])cc1nc(O)c(O)nc12 [NBQX]
[1]; in vivo
  Results (adverse effects): Trial stopped, adverse effects

## C=C1CC[C@@]2(O)[C@H]3Cc4ccc(O)c5c4[C@@]2(CCN3CC2CC2)[C@H]1O5 [Nalmefene]
[1]; [4]
  Results (efficacy): No efficacy

## NC(=O)CN1CCCC1=O [Piracetam]
[1]; [4]
  Results (efficacy): No overall efficacy,

## CCCn1cnc2c1c(=O)n(CCCCC(C)=O)c(=O)n2C [Propentophylline]
[1]; [4]
  Results (adverse effects): Trial stopped, adverse effects

## C[C@@H]1C[C@H]2[C@@H]3CCC4=CC(=O)C=C[C@]4(C)C3=CC[C@]2(C)[C@H]1C(=O)CN1CCN(c2cc(N3CCCC3)nc(N3CCCC3)n2)CC1 [Tirilazad]
[1]; [4]
  Results (efficacy): No efficacy

## COc1ccc2[nH]cc(CCNC(C)=O)c2c1 [melatonin]
[2]; 50 mg/kg
  efficacy at high dose: effective
[2]; doses up to about 50 mg/kg
  harmful effects: can be administered safely; also recorded: no evidence of producing any harmful effects
[2]; pre-treatment, single i.p. injection, about 5 to about 15 mg/kg, at about 72 hours, permanent and 3-hour MCAO
  reduction of infarct volume: about 40%
[2]; pre-treatment, single i.p. injection, about 5 to about 15 mg/kg, permanent and 3-hour MCAO
  effect on systemic hemodynamic parameters and regional cerebral blood flow: without affecting
[2]; [5]
  infarct volume with additional doses: tended to achieve increased reduction in infarct volume
  treatment time window: failed to extend the treatment time window beyond about 3 hours
[2]; single injection about 5 mg/kg commenced at 1 hour or less after onset of ischemia, 3-hour MCAO
  efficacy of treatment after onset of ischemia: effective
[3]
  effect on ovulation: inhibit ovulation
  side effects: without significant side effects

## bFGF: Neurotrophic factor
[1]; in vivo
  Results (adverse effects): Trial stopped, adverse effects
